Laboratory results reported in ChEMBL document CHEMBL3045176, “Occurrence of the antifeedant 14,15-dihydroajugapitin in the aerial parts of Ajuga iva from Algeria” (2000).

Key:
Spodoptera frugiperda = test: Antifeedant activity against final stadium larvae of Spodoptera frugiperda (fall armyworm) in compound-treated sucrose-treated glass-fibre discs assessed as amount of discs eaten at 100 ppm after 18 hr by binary choice feeding bioassay; assay type: functional
Spodoptera littoralis = test: Antifeedant activity against final stadium larvae of Spodoptera littoralis in compound-treated sucrose-treated glass-fibre disks assessed as amount of disks eaten at 100 ppm after 18 hr by binary choice feeding bioassay; assay type: functional

| SMILES | AFI (Spodoptera frugiperda) [%] | AFI (Spodoptera littoralis) [%] |
| --- | --- | --- |
| CC[C@H](C)C(=O)O[C@H]1[C@H](O)C[C@@H]2[C@@](C)([C@@H]3C[C@H]4CCO[C@H]4O3)[C@H](C)C[C@H](OC(C)=O)[C@@]2(COC(C)=O)[C@@]12CO2 [14,15-DIHYDROAJUGAPITIN] | 74 | 76 |
| CC[C@H](C)C(=O)O[C@H]1[C@@H](O)C[C@@H]2[C@@](C)([C@@H]3C[C@H]4CCO[C@H]4O3)[C@H](C)C[C@H](OC(C)=O)[C@@]2(COC(C)=O)[C@@]12CO2 [IVAIN IV] | 61 | 48 |
